Measured values from PMC3669315, “Dissociations in the Effects of β2-Adrenergic Receptor Agonists on cAMP Formation and Superoxide Production in Human Neutrophils: Support for the Concept of Functional Selectivity” (PLoS ONE, 2013).
Like-named read-outs stand apart in the source and are kept apart here.

Columns and labels:
[1] = target: T1, β2-adrenergic receptor (β2AR) on human neutrophils (Homo sapiens, UniProt P07550); assay: cAMP accumulation, HPLC-MS/MS; assay type: cell-based; details: read-out: cAMP assay (β2AR on neutrophil granulocytes) / pEC50 ± S.E.M. (EC50 in μM) (converted), intact neutrophils, […] IBMX, […] °C
T1 construct: gene ADRB2; native full-length receptor in intact neutrophils isolated from venous blood or buffy coat of healthy volunteers

[2] = target: T1, β2-adrenergic receptor (β2AR) on human neutrophils; assay: inhibition of fMLP-stimulated superoxide production, ferricytochrome c reduction; assay type: cell-based; details: agonist potency, downstream functional read-out, intact neutrophils, […] fMLP, cytochalasin B, read-out: O2 ^•- assay (β2AR on neutrophil granulocytes) / pIC50 ± S.E.M. (IC50 in μM) (converted)
Description: inhibition of fMLP-stimulated superoxide production, ferricytochrome c reduction on β2-adrenergic receptor (β2AR) on human neutrophils

T1 sequence (P07550 whole entry): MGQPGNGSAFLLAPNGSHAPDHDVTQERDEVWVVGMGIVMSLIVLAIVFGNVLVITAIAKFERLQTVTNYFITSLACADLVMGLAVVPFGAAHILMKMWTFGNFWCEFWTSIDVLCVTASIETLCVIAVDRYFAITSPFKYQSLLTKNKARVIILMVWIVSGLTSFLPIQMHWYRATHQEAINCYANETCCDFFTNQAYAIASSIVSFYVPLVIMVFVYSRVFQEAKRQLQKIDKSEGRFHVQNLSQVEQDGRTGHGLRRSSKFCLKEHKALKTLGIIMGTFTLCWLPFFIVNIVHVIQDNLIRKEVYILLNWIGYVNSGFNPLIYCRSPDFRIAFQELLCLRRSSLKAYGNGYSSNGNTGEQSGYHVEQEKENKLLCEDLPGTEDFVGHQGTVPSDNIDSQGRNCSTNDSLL

| SMILES | EC50 ([1]; agonist mode, table prints pEC50 <[…] as ( […]), text: no agonistic activity up to […]) | IC50 [2] | EC50 ([1]; partial agonist) |
| --- | --- | --- | --- |
| CC(C)NCC(O)c1ccc(Cl)c(Cl)c1 (racemic) [DCI, (±)-dichlorisoproterenol] | > 100 µM | 39.8 µM | – |
| CC(CCc1ccc(O)cc1)NCCc1ccc(O)c(O)c1 (racemic) [DOB, (±)-dobutamine] | – | – | 13.8 µM |
